Consider one compound from paper PMC5651845, “A New Generation of Arachidonic Acid Analogues as Potential Neurological Agent Targeting Cytosolic Phospholipase A2” (Scientific Reports, 2017).

Molecules are shown by their SMILES.

This test deals with T1, recombinant cPLA2 (Homo sapiens, UniProt P47712).
T1 construct: purchased US Biological P4074-03R
T1 sequence (P47712 1-749): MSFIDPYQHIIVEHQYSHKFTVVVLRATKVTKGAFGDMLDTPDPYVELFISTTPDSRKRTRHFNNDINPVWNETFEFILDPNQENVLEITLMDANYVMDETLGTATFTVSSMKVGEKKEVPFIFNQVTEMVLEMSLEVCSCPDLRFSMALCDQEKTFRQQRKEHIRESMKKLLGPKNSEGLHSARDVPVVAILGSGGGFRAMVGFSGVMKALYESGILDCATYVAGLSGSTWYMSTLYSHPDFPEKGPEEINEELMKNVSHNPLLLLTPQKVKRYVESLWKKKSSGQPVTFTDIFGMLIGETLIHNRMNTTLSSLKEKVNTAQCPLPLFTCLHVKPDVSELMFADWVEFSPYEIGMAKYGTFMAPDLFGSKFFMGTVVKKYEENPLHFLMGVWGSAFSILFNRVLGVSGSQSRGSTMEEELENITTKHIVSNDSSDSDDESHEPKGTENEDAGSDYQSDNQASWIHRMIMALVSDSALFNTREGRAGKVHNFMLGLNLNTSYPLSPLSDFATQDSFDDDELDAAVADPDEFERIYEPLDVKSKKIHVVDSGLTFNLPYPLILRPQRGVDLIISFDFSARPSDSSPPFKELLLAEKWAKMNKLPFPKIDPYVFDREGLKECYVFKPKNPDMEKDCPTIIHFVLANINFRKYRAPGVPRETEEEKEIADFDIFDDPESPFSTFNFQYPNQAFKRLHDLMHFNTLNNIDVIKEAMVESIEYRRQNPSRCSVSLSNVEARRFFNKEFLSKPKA
The test is described as follows: EnzChek phospholipase A2 fluorogenic assay (% activity) at 10 μM. As to conditions: 10 μM compound. It counts as biochemical. Here is the method: The compounds were evaluated with a fluorogenic PLA2 assay kit (EnzChek® Phospholipase A2 Assay Kit, Catalog No: E10217) at a standard 10 μM concentration. Potential inhibitors were determined by their ability to lower cPLA2 activity to a greater extent than 1a.
The assay was conducted according to the manufacturer’s instruction (E10217, Molecular Probes) with slight modification. Briefly, substrate solution was separately prepared by mixing 5 μL of DOPG, 5 μL of DOPC and 5 μL of substrate respectively in 1.5 mL of 1X phospholipase A2 reaction buffer. The mixture was vortexed vigorously for 3 min before allowing to stand at room temperature for 1 h. 48 μL of 1X phospholipase A2 reaction buffer were added into each well of a 96-wells plate. This was followed by addition of 1 μL of recombinant cPLA2 (P4074-03R, US Biological) and 1 μL of 1 mM of the respective compound dissolved in DMSO. The final concentration of the test compound achieved is 10 μM. The reaction was initiated by adding 50 μL of the substrate solution and incubating at room temperature for 1 h. Fluorescence was measured using a Varioskan plate reader (Thermo Scientific, MA, USA) by exciting at 485 nm, while fluorescence emission was detected at 515 nm. Positive control was performed when 1 μL of test compound was replaced by vehicle DMSO. % activity was expressed as the mean value of duplicate wells from three experiments. % activity was calculated by the following formula1 %activity=fluorescenceoftestedwell−background/fluorescenceofpostivecontrol−background

For the compound `CCCCC/C=C\C/C=C\C/C=C\C/C=C\CCCCC(=O)Nc1cccc(C(=O)O)c1` [2i], the inhibition (in general, the relative decrease from the control value, in per cent) at 10 µM stood at 88.5%. Besides, the remaining activity (as a rule, the signal under treatment as a percentage of the control signal) at 10 µM (1 h, room temperature) came out at 11.5 ± 1%.
